Source: the supplement of paper PMC11061612

Legend:
[1] = system: VCaP (Prostate Carcinoma); assay: combination Emax (second highest fraction inhibited in the dose matrix, 72 h); higher = more inhibition; extreme values may be limits of the assay
Outline: (§1)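 Bliss excess equals the observed combination effect minus the expected value EA + EB − EA·EB, where EA and EB are the effects of each agent alone. Combination Emax is the second-highest inhibition within the matrix. Inhibition was scaled from CellTiter-Glo 2.0 luminescence, with 0 set by vehicle wells and 1 by blank wells, after 72 hours of two-drug dosing of cells plated in 1536-well plates.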

[2] = system: A3-KAW (B-Cell Non-Hodgkin's Lymphoma); assay: as above
Outline: as §1

[3] = system: NCI-H1581 (Non-Small Cell Lung Carcinoma); assay: as above
Outline: as §1

[4] = system: TT2609-C02 (Thyroid Gland Carcinoma); assay: as above
Outline: as §1

[5] = system: NCI-H2066 (Squamous Cell Lung Carcinoma); assay: as above
Outline: as §1

[6] = system: COLO-824 (Breast Carcinoma); assay: as above
Outline: as §1

FU97 (Gastric Carcinoma) = assay: as above
Outline: as §1

[7] = system: JSC-1 (B-Cell Non-Hodgkin's Lymphoma); assay: as above
Outline: as §1

GI-ME-N (Neuroblastoma) = assay: as above
Outline: as §1

[8] = system: CCK-81 (Colorectal Carcinoma); assay: as above
Outline: as §1

[9] = system: ONS-76 (Other Solid Carcinomas); assay: as above
Outline: as §1

[10] = system: KARPAS-422 (B-Cell Non-Hodgkin's Lymphoma); assay: as above
Outline: as §1

[11] = system: A549 (Lung Adenocarcinoma); assay: as above
Outline: as §1

[12] = system: HCC1954 (Breast Carcinoma); assay: as above
Outline: as §1

[13] = system: NCI-H1650 (Lung Adenocarcinoma); assay: as above
Outline: as §1

8-MG-BA (Glioblastoma) = assay: as above
Outline: as §1

NCI-H2591 (Mesothelioma) = assay: as above
Outline: as §1

[14] = system: OS-RC-2 (Kidney Carcinoma); assay: Bliss excess, mean over the matrix (fraction); higher = more synergy
Outline: as §1

[15] = system: COLO-320-HSR (Colorectal Carcinoma); assay: as above
Outline: as §1

[16] = system: TT (Thyroid Gland Carcinoma); assay: as above
Outline: as §1

Row | SMILES | combination Emax [1] | combination Emax [2] | combination Emax [3] | combination Emax [4] | combination Emax [5] | combination Emax [6] | combination Emax (FU97 (Gastric Carcinoma)) | combination Emax [7] | combination Emax (GI-ME-N (Neuroblastoma)) | combination Emax [8] | combination Emax [9] | combination Emax [10] | combination Emax [11] | combination Emax [12] | combination Emax [13] | combination Emax (8-MG-BA (Glioblastoma)) | combination Emax (NCI-H2591 (Mesothelioma)) | Bliss excess [14] | Bliss excess [15] | Bliss excess [16]
1 | COc1cccc2c1C(=O)c1c(O)c3c(c(O)c1C2=O)C[C@@](O)(C(=O)CO)C[C@@H]3O[C@H]1C[C@H](N)[C@H](O)[C@H](C)O1 [Doxorubicin] + Cc1cc2ncnn2cc1Nc1ncc2c(n1)n(C1CCOCC1)c(=O)n2C [AZD7648] (first compound max 1 µM, 7x7, partner max 10 µM) | 0.641 | 0.984 | 0.866 | 0.414 | 0.262 | 0.501 | 0.59 | 0.97 | 0.812 | 0.477 | 0.935 | 0.954 | 0.906 | 0.729 | 0.591 | 0.938 | 0.693 | -0.0114 | 0.0307 | 0.01
2 | COc1cc2ncnc(Nc3ccc(F)c(Cl)c3)c2cc1OCCCN1CCOCC1 [Gefitinib] + CC(C)n1c(=O)n(C)c2cnc3cc(F)c(-c4ccc(OCCCN5CCCCC5)nc4)cc3c21 [AZD1390] (first compound max 10 µM, 7x7, partner max 0.3 µM) | 0.0675 | 0.605 | 0.0926 | 0.0663 | 0.384 | 0.366 | 0.149 | 0.249 | 0.0541 | 0.661 | 0.11 | 0.128 | 0.435 | 0.267 | 0.236 | 0.268 | 0.0235 | -0.0817 | -0.0398 | -0.0526
3 | CS(=O)(=O)CCNCc1ccc(-c2ccc3ncnc(Nc4ccc(OCc5cccc(F)c5)c(Cl)c4)c3c2)o1 [Lapatinib] + C[C@@H](Oc1cc(-c2cnn(C3CCNCC3)c2)cnc1N)c1c(Cl)ccc(F)c1Cl [Crizotinib] (first compound max 10 µM, 7x7, partner max 10 µM) | 0.465 | 0.968 | 0.678 | 0.476 | 0.58 | 0.94 | 0.81 | 0.925 | 0.392 | 0.975 | 0.73 | 0.96 | 0.988 | 0.91 | 0.799 | 0.998 | 0.572 | -0.0186 | -0.0416 | -0.002
4 | CC(=O)c1c(C)c2cnc(Nc3ccc(N4CCNCC4)cn3)nc2n(C2CCCC2)c1=O [Palbociclib] + CC1(C)CCC(CN2CCN(c3ccc(C(=O)NS(=O)(=O)c4ccc(NCC5CCOCC5)c([N+](=O)[O-])c4)c(Oc4cnc5[nH]ccc5c4)c3)CC2)=C(c2ccc(Cl)cc2)C1 [Venetoclax] (first compound max 10 µM, 7x7, partner max 1 µM) | 0.164 | 0.826 | 0.291 | 0.275 | 0.184 | 0.844 | 0.161 | 0.506 | 0.196 | 0.106 | 0.364 | 0.964 | 0.64 | 0 | 0.131 | 0.366 | 0.237 | -0.0385 | -0.0625 | 0.0138
5 | CC(=O)c1c(C)c2cnc(Nc3ccc(N4CCNCC4)cn3)nc2n(C2CCCC2)c1=O [Palbociclib] + Cc1c2c(nn1C)CSCc1cc(n(C)n1)CSc1cc(c3ccccc3c1)OCCCc1c(C(=O)O)n(C)c3c-2c(Cl)ccc13 [AZD5991] (first compound max 10 µM, 7x7, partner max 1 µM) | 0.855 | 1 | 0.951 | 0.275 | 0.198 | 0.708 | 0.222 | 1 | 0.332 | 0.941 | 0.357 | 0.966 | 0.64 | 0.712 | 0.195 | 0.63 | 0.279 | -0.0419 | -0.0746 | 0.0684
6 | CC(=O)c1c(C)c2cnc(Nc3ccc(N4CCNCC4)cn3)nc2n(C2CCCC2)c1=O [Palbociclib] + Cn1cnc2c(F)c(Nc3ccc(Br)cc3Cl)c(C(=O)NOCCO)cc21 [Selumetinib] (first compound max 10 µM, 7x7, partner max 10 µM) | 0.159 | 0.869 | 0.536 | 0.527 | 0.244 | 0.345 | 0.377 | 0.633 | 0.245 | 0.477 | 0.734 | 0.81 | 0.764 | 0.178 | 0.15 | 0.321 | 0.288 | -0.0712 | -0.0316 | 0.0418
